In US9861606B2, “Therapeutic for treating inflammatory lung disorders” (University College Cardiff Consultants Limited, priority 2012, dated 2018):
Blank lines part the entries; values can stand above or below the molecule they belong to.

Legend:
[1] = target: T1, human CaSR (Homo sapiens, UniProt P41180); test: Intracellular Ca2+ (fura-2, F/F0) in HEK293 cells stably expressing human CaSR; format: cell-based; details: HEK-CaSR; for CaSR activation (Ca2+i increase) by agonist: 300 nM poly-L-arginine, 1 mM spermine, 10 μg/ml ECP, no response in HEK-0
T1 construct: expressed in transfected cells; control HEK-0 with empty vector
T1 sequence (P41180 20-1078): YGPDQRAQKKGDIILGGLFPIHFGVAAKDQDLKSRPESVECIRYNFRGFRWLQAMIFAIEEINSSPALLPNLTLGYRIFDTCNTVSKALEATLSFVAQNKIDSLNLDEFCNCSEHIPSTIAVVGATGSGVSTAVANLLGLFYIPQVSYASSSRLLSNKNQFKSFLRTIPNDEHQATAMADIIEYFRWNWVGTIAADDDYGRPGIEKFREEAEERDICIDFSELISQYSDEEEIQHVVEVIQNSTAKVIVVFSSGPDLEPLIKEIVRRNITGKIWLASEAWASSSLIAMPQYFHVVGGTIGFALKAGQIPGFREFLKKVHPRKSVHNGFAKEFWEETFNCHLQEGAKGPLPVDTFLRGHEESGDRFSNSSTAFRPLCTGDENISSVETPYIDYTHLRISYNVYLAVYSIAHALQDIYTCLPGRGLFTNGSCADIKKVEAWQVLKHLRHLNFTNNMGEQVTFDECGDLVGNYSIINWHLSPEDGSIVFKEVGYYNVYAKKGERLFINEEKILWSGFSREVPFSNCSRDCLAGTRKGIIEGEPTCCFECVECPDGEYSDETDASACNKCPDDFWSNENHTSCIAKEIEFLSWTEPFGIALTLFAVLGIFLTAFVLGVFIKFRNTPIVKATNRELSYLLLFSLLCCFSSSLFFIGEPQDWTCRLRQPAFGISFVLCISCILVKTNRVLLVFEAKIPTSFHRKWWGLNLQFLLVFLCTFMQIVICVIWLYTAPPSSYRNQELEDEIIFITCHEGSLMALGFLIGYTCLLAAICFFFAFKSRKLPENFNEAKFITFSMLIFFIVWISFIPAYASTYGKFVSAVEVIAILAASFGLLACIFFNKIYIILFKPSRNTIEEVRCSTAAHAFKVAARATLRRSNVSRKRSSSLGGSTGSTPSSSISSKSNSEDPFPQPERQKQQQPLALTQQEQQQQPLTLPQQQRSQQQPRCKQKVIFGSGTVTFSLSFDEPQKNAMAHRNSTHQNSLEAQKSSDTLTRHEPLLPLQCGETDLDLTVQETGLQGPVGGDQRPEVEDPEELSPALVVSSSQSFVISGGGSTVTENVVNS
Description: The structurally unrelated calcilytic NPS2143 also prevents spermine-induced CaSR activation (D). […] Note that ECP serum concentrations in asthmatic subjects are believed to be 30 μg/ml. n=121-487 cells, 3-9 experiments. Data are mean±SEM. Where differences are significant, they are shown above the bars. FIG. 6. Ca^2+o activates the CaSR, an effect which can be prevented by the calcilytic NPS89636. HEK293 cells stably expressing the human CaSR (HEK-CaSR) or transfected with empty vector (HEK-0) were loaded with 4 μM fura-2 AM and exposed to 5 mM Ca^2+o in the absence or presence of the calcilytic, NPS89636 (100 nM). Data are from >3 experiments and 121-386 cells. Significant differences are shown above the bars. […] The ability of a structurally unrelated calcilytic, NPS2143 (1-10 μM), was also tested on spermine-induced Ca^2+i mobilisation in HEK-CaSR. Ca^2+i release was measured as peak/baseline fluorescence (F/F0). Note that ECP serum concentrations in asthmatic subjects increase with disease severity and are believed to reach 30 μg/ml.

[2] = test system: mouse intralobular bronchi; details: spermine 10 μM-3 mM cumulative, ACh-precontracted to ~50% tone
Description: A. Intralobular bronchi were dissected from wild type C57/Bl6 mice (3-4 month of age), mounted upon a wire myograph and bubbled with 95% O2/5% CO2 in the presence of an extracellular solution containing 1 mM Ca^2+o. […] Data are mean±SEM, n=3. B. Intralobular bronchi were dissected from wild type (sm22α-Cre^−/−/floxed-CaSR^+/+) and CaSR knockout (sm22α-Cre^+/+/floxed-CaSR^+/+) mice and were then mounted on a wire myograph, as described in (A). […] Percentage of contraction (upwards deflection from zero of the relaxation curve) or relaxation (downwards deflection from zero of the relaxation curve) were calculated from the tension data. Data are mean±SEM, n=3 per genotype. […] Second/third order intralobular bronchi were dissected from the lung left lobe of WT or CaSR KO mice, mounted in small vessel myograph using stainless steel wires (d=40 micrometers) in a Krebs' solution bubbled with 95% O2/5% CO2. Bronchi were left to settle at 37° C. for 30 min, then gradually stretched to reach 2 mN of passive tension. After 30 min of equilibration time, the reactivity of the bronchi was tested by addition of 40 mM KCl to the bath. […] Data are shown as mean±SEM percentage change from baseline, where upwards deflection from zero represents contraction, whilst downwards deflection from zero of the relaxation curve represents relaxation. […] WT: n=6; KO: n=7. *p<0.05; **p<0.01.

[3] = target: T2, CaSR in human ASM cells (Homo sapiens, UniProt P41180); test: Intracellular Ca2+ signalling (Fura-2) in primary human airway smooth muscle cells; format: cell-based; details: spermine 0.1-3 mM; ECPs 1-10 micrograms/ml
T2 construct: endogenous in cells; host or cells: primary human airway smooth muscle cells explanted from bronchial biopsies
T2 sequence (P41180 20-1078): T1 sequence (P41180 20-1078)
Description: Human ASM cells, loaded with Fura-2 AM, show elevation of [Ca^2+]i (F/F0) when exposed to increased [Ca^2+]o (A, n=7) or spermine (B, n=35; mean±SEM). […] In the presence of 5 mM [Ca^2+]o (saturating for CaSR, see A), the response to ECP, but not to BK, is ablated, consistent with CaSR activation by ECP. D), transfection of a “dominant negative” CaSR (CaSR DN) prevents spermine-dependent increase in [Ca^2+]i in human ASM cells, an effect which cannot be seen in MOCK-transfected cells.
Effects of Polycations in Human ASM Cells In Vitro
Once primary human airway smooth muscle cells cell cultures were established at 80-90% confluence using the protocol described above, the endogenous CaSR was activated by exposing these cells to pathophysiologically relevant concentrations of ECPs (1-10 micrograms/ml), spermine (0.1-3 mM) and Ca^2+o (1-5 mM) to determine the effects on intracellular Ca^2+i signalling (using the Ca^2+-sensitive fluorescent dye, Fura-2).

[4] = test system: mouse intralobular bronchi; details: 300 μM spermine, 15 min pre-treatment
Description: A. Intralobular bronchi were dissected from wild type C57/Bl6 mice (3-4 month of age), mounted upon a wire myograph and bubbled with 95% O2/5% CO2 in the presence of an extracellular solution containing 1 mM Ca^2+o. […] Data are mean±SEM, n=3. B. Intralobular bronchi were dissected from wild type (sm22α-Cre^−/−/floxed-CaSR^+/+) and CaSR knockout (sm22α-Cre^+/+/floxed-CaSR^+/+) mice and were then mounted on a wire myograph, as described in (A). […] Percentage of contraction (upwards deflection from zero of the relaxation curve) or relaxation (downwards deflection from zero of the relaxation curve) were calculated from the tension data. Data are mean±SEM, n=3 per genotype. […] Second/third order intralobular bronchi were dissected from the lung left lobes of WT or KO mice, mounted in small vessel myograph using stainless steel wires (d=40 micrometers) and maintained in a Krebs solution bubbled with 95% O2/5% CO2. Bronchi were left to settle at 37° C. for 30 min, then they were gradually stretched to reach 2 mN of passive tension. After 30 min equilibration time, reactivity of the bronchi was tested by addition of 40 mM KCl to the bath. […] Data are shown as mean±SEM percentage of contraction normalized to the maximal contraction in control. […] Bronchi were left to settle at 37° C. for 30 min, then they were gradually stretched to reach 2 mN of passive tension. […]

[5] = test system: BalbC mice; test: Polycation-induced bronchial hyper-reactivity (Penh, plethysmography) in methacholine-challenged conscious mice; format: in vivo, mouse; details: nebulised poly-L-arginine 3 μM, 1 hour; conscious BalbC mice
Description: FIG. 5. […] prevent polycation-evoked BHR in methacholine-challenged mice. […] After the treatment, animals were placed in plethysmography chambers (Buxco, USA), allowed to settle for 10 minutes, and then they were challenged with methacholine (MCh, 0.1-10 mg/ml). Responses to methacholine obtained from the animals that have not received any treatments are shown in black symbols. From our previous estimates, 1-5% of the nebulised drug reaches the lung epithelium. […] FIG. 12. […] Male BalbC mice ( 25 g) were purchased from Harlan 1 week before the experimental protocols were performed. […] On the day of the experiment, the body weight of each mouse was recorded and mice were allowed to acclimatise to the chamber for at least 10 min before recordings were made. Then, respiratory activity was recorded for 5 min, to establish baseline value for Penh. […] Data were recorded for 3 minutes after each aerosol administration. The Penh values at each MCh concentration were averaged and expressed as a proportion of baseline Penh (Penh before treatment). […] The Penh values at each MCh concentration were averaged and expressed as a proportion of that day's baseline Penh (Penh after treatment). […] Effect of Polycations and of the Calcilytic NPS89636 on Bronchial Hyper-Reactivity in Unrestrained, Conscious Mice In Vivo Baseline airway hyper-responsiveness was measured by plethysmography. […]

Effect of calcilytic on spermine-induced CaSR activation (Ca2+i mobilisation) ([1]; 1-10 μM calcilytic): prevented CaSR activation by spermine
Molecule: CC(C)(Cc1ccc2ccccc2c1)NC[C@@H](O)COc1cccc(Cl)c1C#N.Cl [NPS2143, reference compound]

Increase in Ca2+i evoked by agonist in human ASM cells [3]: evoke increases in Ca^2+i
CaSR activation (Ca2+i increase) by agonist [1]: responds
Molecule: NCCCNCCCCNCCCN [spermine]
Direct bronchoconstriction, CaSR KO bronchi ([2]; knock-out mice): not in the intralobular bronchi of knock-out mice
Direct bronchoconstriction, WT bronchi ([2]; wild-type mice): directly evokes bronchoconstriction
Effect on ACh-induced contraction, CaSR KO bronchi ([4]; CaSR knock-out mice): not seen
Effect on ACh-induced contraction, WT bronchi ([4]; wild-type mice): increases the response to acetylcholine-mediated contraction

Molecule: poly-L-arginine [reference compound]
Effect on response to methacholine (Penh) [5]: significantly enhanced
CaSR activation (Ca2+i increase) by agonist [1]: responds

Increase in Ca2+i evoked by agonist in human ASM cells [3]: evoke increases in Ca^2+i
CaSR activation (Ca2+i increase) by agonist [1]: agonists at the CaSR
B1: ECPs: eosinophil cationic protein, novel agonist at the human CaSR (protein, UniProt P12724 28-160, looked up)
Eosinophil cationic protein: RPPQFTRAQWFAIQHISLNPPRCTIAMRAINNYRWRCKNQNTFLRTTFANVVNVCGNQSIRCPHNRTLNNCHRSRFRVPLLHCDLINPGAQNISNCTYADRPGRRFYVVACDNRDPRDSPRYPVVPVHLDTTI
